From patent publication US20250388605A1, “HETEROBIFUNCTIONAL COMPOUNDS AND METHODS OF TREATING DISEASE” (Halda Therapeutics OpCo, Inc., priority 2022, published 2025)

What was measured:
[1] = system: T-Rex 293 cell line SC3 cells having increased expression of androgen receptor protein due to exposure to doxycycline; assay: Cellular growth inhibition, T-Rex 293 SC3 cells with doxycycline (increased androgen receptor expression), CellTiter-Glo; format: cell-based; conditions: T-Rex 293 SC3 cells with 10 ng/mL doxycycline (increased androgen receptor expression), 72 hours, CellTiter-Glo 2.0
Outline: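 Growth inhibition is measured in an inducible AR-expressing T-Rex 293 clone, SC3, cultured with or without 10 ng/mL doxycycline in hormone-depleted medium. Test compounds are applied for 72 hours. GI50 values derive from CellTiter-Glo 2.0 signal fitted by four-parameter regression.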

[2] = system: T47D cells; assay: Cellular Growth Inhibition Assay for T47D Cells (CellTiter-Glo); format: cell-based, human; conditions: 72 hours
Outline: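 GI50 values derive from four-parameter regression of CellTiter-Glo 2.0 luminescence, using zero luminescence as baseline. Human breast cancer T47D cells (3000/well; DMEM, 10% FBS, 0.2 units/mL insulin) were exposed for 72 h to compound dilutions at 0.5% DMSO, with dosing starting 24 h after seeding.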

Structure (SMILES) | GI50 ([2]; Homo sapiens) [nM] | GI50 [2] [nM] | GI50 [1] [nM]
CCS(=O)(=O)Cc1ccc(Oc2cccc(OCCOC3CCN(c4ncc(C(=O)N[C@H]5C(C)(C)[C@H](Oc6ccc(C#N)c(Cl)c6)C5(C)C)cn4)CC3)c2)c(-c2cn(C)c(=O)c3[nH]ccc23)c1 [Compound I-54, N-((1r, 3r)-3-(3-chloro-4-cyanophenoxy)-2,2,4,4-tetramethylcyclobutyl)-2-(4-(2-(3-(4-((ethylsulfonyl)methyl)-2-(6-methyl-7-oxo-6,7-dihydro-1H-pyrrolo[2,3-c]pyridin-4-yl)phenoxy)phenoxy)ethoxy)piperidin-1-yl)pyrimidine-5-carboxamide] | < 500 |  | < 500
Cn1cc(-c2cc(C(C)(C)O)ccc2Oc2cccc(N3CC(CC4CCN(c5ncc(C(=O)N[C@H]6C(C)(C)[C@H](Oc7ccc(C#N)c(Cl)c7)C6(C)C)cn5)CC4)C3)c2F)c2cc[nH]c2c1=O [Compound I-196] |  | 500 to 1500 | < 500
CCS(=O)(=O)Nc1ccc(Oc2cccc(OCCOC3CCN(c4ncc(C(=O)N[C@H]5C(C)(C)[C@H](Oc6ccc(C#N)c(Cl)c6)C5(C)C)cn4)CC3)n2)c(-c2cn(C)c(=O)c3[nH]ccc23)c1 [Compound I-47, N-((1r, 3r)-3-(3-chloro-4-cyanophenoxy)-2,2,4,4-tetra-methylcyclobutyl)-2-(4-(2-((6-(4-(ethylsulfonamido)-2-(6-methyl-7-oxo-6,7-dihydro-1H-pyrrolo[2,3-c]pyridin-4-yl)phenoxy)pyridin-2-yl)oxy)ethoxy)piperidin-1-yl)pyrimidine-5-carboxamide] |  |  | < 500
Cn1cc(-c2cc(C(C)(C)O)ccc2Oc2ccc(N3CC(CC4CCN(c5ncc(C(=O)N[C@H]6C(C)(C)[C@H](Oc7ccc(C#N)c(Cl)c7)C6(C)C)cn5)CC4)C3)cc2)c2cc[nH]c2c1=O [Compound I-232] | < 500 |  | < 500
CCS(=O)(=O)c1ccc(Oc2cccc(OCCOC3CCN(c4ccc(C(=O)N[C@H]5C(C)(C)[C@H](Oc6ccc(C#N)c(Cl)c6)C5(C)C)cn4)CC3)c2F)c(-c2cn(C)c(=O)c3[nH]ccc23)c1 [Compound I-185] |  |  | < 500
CN(CCCc1ccc(Oc2ccc(C(C)(C)O)cc2-c2cn(C)c(=O)c3[nH]ccc23)cc1)c1ncc(C(=O)N[C@H]2C(C)(C)[C@H](Oc3ccc(C#N)c(Cl)c3)C2(C)C)cn1 [Compound I-211] | < 500 |  | < 500
CCS(=O)(=O)Nc1ccc(Oc2cccc(OCCOCCOC3CCN(c4ncc(C(=O)N[C@H]5C(C)(C)[C@H](Oc6ccc(C#N)c(Cl)c6)C5(C)C)cn4)CC3)c2)c(-c2cn(C)c(=O)c3[nH]ccc23)c1 [Compound I-13] |  |  | < 500
CCS(=O)(=O)Nc1ccc(Oc2cccc(OCCN(C)c3ncc(C(=O)N[C@H]4C(C)(C)[C@H](Oc5ccc(C#N)c(Cl)c5)C4(C)C)cn3)c2)c(-c2cn(C)c(=O)c3[nH]ccc23)c1 [Compound I-1, N-((1r, 3r)-3-(3-chloro-4-cyanophenoxy)-2,2,4,4-tetramethylcyclobutyl)-2-((2-(3-(4-(ethylsulfonamido)-2-(6-methyl-7-oxo-6,7-dihydro-1H-pyrrolo[2,3-c]pyridin-4-yl)phenoxy)phenoxy)ethyl)(methyl)amino)pyrimidine-5-carboxamide] |  |  | < 500
CCS(=O)(=O)c1ccc(OCC(CCCN2CCN(c3ncc(C(=O)NC4C(C)(C)C(Oc5ccc(C#N)c(Cl)c5)C4(C)C)cn3)CC2)C2CC2)c(-c2cn(C)c(=O)c3[nH]ccc23)c1 (stereo not drawn) [Compound I-231, N-[3-(3-chloro-4-cyano-phenoxy)-2,2,4,4-tetramethyl-cyclobutyl]-2-[4-[4-cyclopropyl-5-[4-ethylsulfonyl-2-(6-methyl-7-oxo-1H-pyrrolo[2,3-c]pyridin-4-yl)phenoxy]pentyl]piperazin-1-yl]pyrimidine-5-carboxamide] | < 500 |  | < 500
CCS(=O)(=O)Nc1ccc(Oc2cccc(OCCOCCOCCOCCOCCOC3CCN(c4ncc(C(=O)N[C@H]5C(C)(C)[C@H](Oc6ccc(C#N)c(Cl)c6)C5(C)C)cn4)CC3)c2)c(-c2cn(C)c(=O)c3[nH]ccc23)c1 [Compound I-8] |  |  | < 500
CCS(=O)(=O)Nc1ccc(Oc2cccc(OCCOCCOCCOCCOCCN(C)c3ncc(C(=O)N[C@H]4C(C)(C)[C@H](Oc5ccc(C#N)c(Cl)c5)C4(C)C)cn3)c2)c(-c2cn(C)c(=O)c3[nH]ccc23)c1 [Compound I-3] |  |  | < 500
CCS(=O)(=O)Nc1ccc(Oc2cccc(CCOC3CCN(c4ncc(C(=O)N[C@H]5C(C)(C)[C@H](Oc6ccc(C#N)c(Cl)c6)C5(C)C)cn4)CC3)c2)c(-c2cn(C)c(=O)c3[nH]ccc23)c1 [Compound I-19] |  |  | < 500
CCS(=O)(=O)Nc1ccc(Oc2cccc(N(C)C3CN(CC4CCN(c5ncc(C(=O)NC6C(C)(C)C(Oc7ccc(C#N)c(Cl)c7)C6(C)C)cn5)CC4)C3)c2)c(-c2cn(C)c(=O)c3[nH]ccc23)c1 (stereo not drawn) [Compound I-39] |  |  | < 500
CCS(=O)(=O)Nc1ccc(Oc2cccc(OCCOC3CCN(c4ccc(C(=O)N[C@H]5C(C)(C)[C@H](Oc6ccc(C#N)c(Cl)c6)C5(C)C)nn4)CC3)c2)c(-c2cn(C)c(=O)c3[nH]ccc23)c1 [Compound I-11] |  |  | < 500

Second part, led by results:

GI50 ([2]; Homo sapiens) [nM] | GI50 [2] [nM] | Structure (SMILES) | GI50 [1] [nM]
< 500 |  | CCS(=O)(=O)Nc1ccc(Oc2cccc(NCCOC3CCN(c4ncc(C(=O)N[C@H]5C(C)(C)[C@H](Oc6ccc(C#N)c(Cl)c6)C5(C)C)cn4)CC3)c2)c(-c2cn(C)c(=O)c3[nH]ccc23)c1 [Compound I-84] | < 500
< 500 |  | Cn1cc(-c2cc(C(C)(C)O)ccc2Oc2ccc(CC3CCN(c4ncc(C(=O)N[C@H]5C(C)(C)[C@H](Oc6ccc(C#N)c(Cl)c6)C5(C)C)cn4)CC3)cc2)c2cc[nH]c2c1=O [Compound I-201] | < 500
500 to 1500 |  | Cn1cc(-c2cc(C(C)(C)O)ccc2Oc2cccc(OCCC3CCN(c4ncc(C(=O)N[C@H]5C(C)(C)[C@H](Oc6ccc(C#N)c(Cl)c6)C5(C)C)cn4)CC3)c2F)c2cc[nH]c2c1=O [Compound I-142] | < 500
< 500 |  | CCS(=O)(=O)Nc1ccc(Oc2cccc(COC3CCN(c4ncc(C(=O)N[C@H]5C(C)(C)[C@H](Oc6ccc(C#N)c(Cl)c6)C5(C)C)cn4)CC3)c2)c(-c2cn(C)c(=O)c3[nH]ccc23)c1 [Compound I-18, N-((1r, 3r)-3-(3-chloro-4-cyanophenoxy)-2,2,4,4-tetramethylcyclobutyl)-2-(4-((3-(4-(ethylsulfonamido)-2-(6-methyl-7-oxo-6,7-dihydro-1H-pyrrolo[2,3-c]pyridin-4-yl)phenoxy)benzyl)oxy)piperidin-1-yl)pyrimidine-5-carboxamide] | < 500
< 500 |  | CCS(=O)(=O)Nc1ccc(Oc2cccc(N3CC(N(C)C4CN(c5ncc(C(=O)N[C@H]6C(C)(C)[C@H](Oc7ccc(C#N)c(Cl)c7)C6(C)C)cn5)C4)C3)c2)c(-c2cn(C)c(=O)c3[nH]ccc23)c1 [Compound I-120] | < 500
 | < 500 | CCS(=O)(=O)Nc1ccc(Oc2cccc(N3CC(CC4CN(c5ncc(C(=O)N[C@H]6C(C)(C)[C@H](Oc7ccc(C#N)c(Cl)c7)C6(C)C)cn5)C4)C3)c2)c(-c2cn(C)c(=O)c3[nH]ccc23)c1 [Compound I-158] | < 500
 | < 500 | CCS(=O)(=O)Nc1ccc(Oc2cccc(OC3CC(C4CCN(c5ncc(C(=O)N[C@H]6C(C)(C)[C@H](Oc7ccc(C#N)c(Cl)c7)C6(C)C)cn5)CC4)C3)c2)c(-c2cn(C)c(=O)c3[nH]ccc23)c1 (stereo partly drawn) [Compound I-104] | < 500
< 500 |  | CCS(=O)(=O)Nc1ccc(Oc2ccc(F)c(OCCOC3CCN(c4ncc(C(=O)N[C@H]5C(C)(C)[C@H](Oc6ccc(C#N)c(Cl)c6)C5(C)C)cn4)CC3)c2F)c(-c2cn(C)c(=O)c3[nH]ccc23)c1 [Compound I-65] | < 500
500 to 1500 |  | Cn1cc(-c2ccccc2Oc2cccc(N3CC(N4CCN(c5ncc(C(=O)N[C@H]6C(C)(C)[C@H](Oc7ccc(C#N)c(Cl)c7)C6(C)C)cn5)CC4)C3)c2F)c2cc[nH]c2c1=O [Compound I-94] | < 500
< 500 |  | CCS(=O)(=O)c1ccc(OC(CCCCN2CCN(c3ncc(C(=O)NC4C(C)(C)C(Oc5ccc(C#N)c(Cl)c5)C4(C)C)cn3)CC2)C2CC2)c(-c2cn(C)c(=O)c3[nH]ccc23)c1 (stereo not drawn) [Compound I-223, N-[3-(3-chloro-4-cyano-phenoxy)-2,2,4,4-tetramethyl-cyclobutyl]-2-[4-[5-cyclopropyl-5-[4-ethylsulfonyl-2-(6-methyl-7-oxo-1H-pyrrolo[2,3-c]pyridin-4-yl)phenoxy]pentyl]piperazin-1-yl]pyrimidine-5-carboxamide] | < 500
 | < 500 | CCS(=O)(=O)Nc1ccc(Oc2ccc(OCC3CCN(c4ncc(C(=O)N[C@H]5C(C)(C)[C@H](Oc6ccc(C#N)c(Cl)c6)C5(C)C)cn4)CC3)cc2)c(-c2cn(C)c(=O)c3[nH]ccc23)c1 [Compound I-138] | < 500
 | 500 to 1500 | Cn1cc(-c2cc(C(C)(C)O)ccc2Oc2cccc(N3CC(OC4CCN(c5ncc(C(=O)N[C@H]6C(C)(C)[C@H](Oc7ccc(C#N)c(Cl)c7)C6(C)C)cn5)CC4)C3)c2F)c2cc[nH]c2c1=O [Compound I-190] | < 500
< 500 |  | CCS(=O)(=O)Nc1ccc(Oc2cccc(OCCOC3CCN(c4cnc(C(=O)N[C@H]5C(C)(C)[C@H](Oc6ccc(C#N)c(Cl)c6)C5(C)C)cn4)CC3)c2)c(-c2cn(C)c(=O)c3[nH]ccc23)c1 [Compound I-71, N-((1r, 3r)-3-(3-chloro-4-cyanophenoxy)-2,2,4,4-tetramethylcyclobutyl)-5-(4-(2-(3-(4-(ethylsulfonamido)-2-(6-methyl-7-oxo-6,7-dihydro-1H-pyrrolo[2,3-c]pyridin-4-yl)phenoxy)phenoxy)ethoxy)piperidin-1-yl)pyrazine-2-carboxamide] | < 500
